Laboratory results as given in the supplement of paper PMC10307832.

Tests used:
Test in all cases: relative viability (nuclei count vs DMSO), 5 days (fraction); higher = more cells survive
HCC-78 = test system: HCC-78
Summary of the method: (§1)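 Relative viability divides the nuclei count in treated wells by that in vehicle wells. Lung cancer cell lines were seeded in 1536-well plates, dosed by pin tool the next day, and fixed and stained after 5 days in one step with final 0.05% Triton X-100, 1% formaldehyde and 1 ug/ml Hoechst. Dosing was a single drug or a fixed anchor-drug dose plus five library-drug doses (not always all listed) in √10 steps, and values are medians of duplicate plates imaged at 4×.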

COR-L 105 = test system: COR-L 105
Summary of the method: as §1

HOP-62 = test system: HOP-62
Summary of the method: as §1

NCI-H1915 = test system: NCI-H1915
Summary of the method: as §1

NCI-H460 = test system: NCI-H460
Summary of the method: as §1

NCI-H1666 = test system: NCI-H1666
Summary of the method: as §1

NCI-H2009 = test system: NCI-H2009
Summary of the method: as §1

EPLC-272H = test system: EPLC-272H
Summary of the method: as §1

SK-LU-1 = test system: SK-LU-1
Summary of the method: as §1

NCI-H358 = test system: NCI-H358
Summary of the method: as §1

NCI-H1792 = test system: NCI-H1792
Summary of the method: as §1

NCI-H1793 = test system: NCI-H1793
Summary of the method: as §1

A-427 = test system: A-427
Summary of the method: as §1

HCC-366 = test system: HCC-366
Summary of the method: as §1

NCI-H1944 = test system: NCI-H1944
Summary of the method: as §1

UMC-11 = test system: UMC-11
Summary of the method: as §1

LC-2-ad = test system: LC-2-ad
Summary of the method: as §1

LU99A = test system: LU99A
Summary of the method: as §1

NCI-H2170 = test system: NCI-H2170
Summary of the method: as §1

NCI-H2085 = test system: NCI-H2085
Summary of the method: as §1

LXF-289 = test system: LXF-289
Summary of the method: as §1

SMILES: CCN(CC)CCCCNc1ncc2cc(-c3cc(OC)cc(OC)c3)c(NC(=O)NC(C)(C)C)nc2n1 + Cc1nc(NC(=O)N2CCC[C@H]2C(N)=O)sc1-c1ccnc(C(C)(C)C(F)(F)F)c1 [Alpelisib] (partner 2 µM)
- relative viability (HCC-78; first compound 0.03162 µM): 0.255
- relative viability (HCC-78; first compound 0.1 µM): 0.308
- relative viability (HCC-78; first compound 0.3162 µM): 0.348
- relative viability (HCC-78; first compound 1 µM): 0.303
- relative viability (COR-L 105; first compound 0.01 µM): 1
- relative viability (COR-L 105; first compound 0.03162 µM): 0.981
- relative viability (COR-L 105; first compound 0.1 µM): 1.06
- relative viability (COR-L 105; first compound 0.3162 µM): 1.01
- relative viability (COR-L 105; first compound 1 µM): 0.917
- relative viability (HOP-62; first compound 0.01 µM): 0.82
- relative viability (HOP-62; first compound 0.03162 µM): 1.1
- relative viability (HOP-62; first compound 0.1 µM): 0.89
- relative viability (HOP-62; first compound 0.3162 µM): 1.04
- relative viability (HOP-62; first compound 1 µM): 0.726
- relative viability (NCI-H1915; first compound 0.01 µM): 1.07
- relative viability (NCI-H1915; first compound 0.03162 µM): 1.15
- relative viability (NCI-H1915; first compound 0.1 µM): 1.06
- relative viability (NCI-H1915; first compound 0.3162 µM): 1.14
- relative viability (NCI-H1915; first compound 1 µM): 1.07
- relative viability (NCI-H460; first compound 0.01 µM): 0.646
- relative viability (NCI-H460; first compound 0.03162 µM): 0.58
- relative viability (NCI-H460; first compound 0.1 µM): 0.82
- relative viability (NCI-H460; first compound 0.3162 µM): 0.463
- relative viability (NCI-H460; first compound 1 µM): 0.399
- relative viability (NCI-H1666; first compound 0.01 µM): 0.963
- relative viability (NCI-H1666; first compound 0.03162 µM): 0.889
- relative viability (NCI-H1666; first compound 0.1 µM): 1.02
- relative viability (NCI-H1666; first compound 0.3162 µM): 0.995
- relative viability (NCI-H1666; first compound 1 µM): 0.74
- relative viability (NCI-H2009; first compound 0.01 µM): 1.15
- relative viability (NCI-H2009; first compound 0.03162 µM): 1.14
- relative viability (NCI-H2009; first compound 0.1 µM): 1.24
- relative viability (NCI-H2009; first compound 0.3162 µM): 1.18
- relative viability (NCI-H2009; first compound 1 µM): 1.16
- relative viability (EPLC-272H; first compound 0.01 µM): 0.918
- relative viability (EPLC-272H; first compound 0.1 µM): 1.01
- relative viability (EPLC-272H; first compound 0.3162 µM): 1.07
- relative viability (EPLC-272H; first compound 1 µM): 0.883
- relative viability (SK-LU-1; first compound 0.01 µM): 1.06
- relative viability (SK-LU-1; first compound 0.03162 µM): 1.08
- relative viability (SK-LU-1; first compound 0.1 µM): 1.18
- relative viability (SK-LU-1; first compound 0.3162 µM): 1.21
- relative viability (SK-LU-1; first compound 1 µM): 0.65
- relative viability (NCI-H358; first compound 0.01 µM): 1.06
- relative viability (NCI-H358; first compound 0.03162 µM): 0.901
- relative viability (NCI-H358; first compound 0.1 µM): 1.01
- relative viability (NCI-H358; first compound 0.3162 µM): 0.848
- relative viability (NCI-H358; first compound 1 µM): 0.725
- relative viability (NCI-H1792; first compound 0.01 µM): 0.797
- relative viability (NCI-H1792; first compound 0.03162 µM): 0.674
- relative viability (NCI-H1792; first compound 0.1 µM): 0.51
- relative viability (NCI-H1792; first compound 0.3162 µM): 0.766
- relative viability (NCI-H1792; first compound 1 µM): 0.563
- relative viability (NCI-H1793; first compound 0.01 µM): 0.748
- relative viability (NCI-H1793; first compound 0.1 µM): 0.958
- relative viability (NCI-H1793; first compound 0.3162 µM): 0.716
- relative viability (NCI-H1793; first compound 1 µM): 0.642
- relative viability (A-427; first compound 0.01 µM): 1.08
- relative viability (A-427; first compound 0.03162 µM): 1.08
- relative viability (A-427; first compound 0.1 µM): 1.1
- relative viability (A-427; first compound 0.3162 µM): 1.1
- relative viability (A-427; first compound 1 µM): 0.903
- relative viability (HCC-366; first compound 0.01 µM): 0.385
- relative viability (HCC-366; first compound 0.03162 µM): 0.326
- relative viability (HCC-366; first compound 0.1 µM): 0.757
- relative viability (HCC-366; first compound 0.3162 µM): 0.584
- relative viability (HCC-366; first compound 1 µM): 0.47
- relative viability (NCI-H1944; first compound 0.01 µM): 0.884
- relative viability (NCI-H1944; first compound 0.03162 µM): 0.842
- relative viability (NCI-H1944; first compound 0.1 µM): 0.89
- relative viability (NCI-H1944; first compound 0.3162 µM): 0.95
- relative viability (NCI-H1944; first compound 1 µM): 0.799
- relative viability (UMC-11; first compound 0.01 µM): 1.08
- relative viability (UMC-11; first compound 0.03162 µM): 0.921
- relative viability (UMC-11; first compound 0.1 µM): 1.02
- relative viability (UMC-11; first compound 0.3162 µM): 1.17
- relative viability (UMC-11; first compound 1 µM): 0.88
- relative viability (LC-2-ad; first compound 0.01 µM): 1.03
- relative viability (LC-2-ad; first compound 0.03162 µM): 0.918
- relative viability (LC-2-ad; first compound 0.1 µM): 0.942
- relative viability (LC-2-ad; first compound 0.3162 µM): 1.07
- relative viability (LC-2-ad; first compound 1 µM): 0.865
- relative viability (LU99A; first compound 0.01 µM): 0.5
- relative viability (LU99A; first compound 0.03162 µM): 0.523
- relative viability (LU99A; first compound 0.1 µM): 0.55
- relative viability (LU99A; first compound 0.3162 µM): 0.666
- relative viability (LU99A; first compound 1 µM): 0.575
- relative viability (NCI-H2170; first compound 0.01 µM): 0.92
- relative viability (NCI-H2170; first compound 0.03162 µM): 0.822
- relative viability (NCI-H2170; first compound 0.1 µM): 0.831
- relative viability (NCI-H2170; first compound 0.3162 µM): 0.894
- relative viability (NCI-H2170; first compound 1 µM): 0.807
- relative viability (NCI-H2085; first compound 0.01 µM): 1.04
- relative viability (NCI-H2085; first compound 0.03162 µM): 0.999
- relative viability (NCI-H2085; first compound 0.1 µM): 1.02
- relative viability (NCI-H2085; first compound 0.3162 µM): 0.983
- relative viability (NCI-H2085; first compound 1 µM): 0.907
- relative viability (LXF-289; first compound 0.01 µM): 1.07
- relative viability (LXF-289; first compound 0.03162 µM): 1.06
- relative viability (LXF-289; first compound 0.1 µM): 1.19
- relative viability (LXF-289; first compound 0.3162 µM): 1.02
- relative viability (LXF-289; first compound 1 µM): 0.971
